This is an account of results in ChEMBL document CHEMBL3046048, “Design and synthesis of new 2,4,5-triarylimidazole derivatives as selective cyclooxygenase (COX-2) inhibitors” (Med Chem Res, 2012).

The target of the experiment is T1, Prostaglandin G/H synthase 1 (Ovis aries, UniProt P05979).
T1 sequence (P05979 whole entry): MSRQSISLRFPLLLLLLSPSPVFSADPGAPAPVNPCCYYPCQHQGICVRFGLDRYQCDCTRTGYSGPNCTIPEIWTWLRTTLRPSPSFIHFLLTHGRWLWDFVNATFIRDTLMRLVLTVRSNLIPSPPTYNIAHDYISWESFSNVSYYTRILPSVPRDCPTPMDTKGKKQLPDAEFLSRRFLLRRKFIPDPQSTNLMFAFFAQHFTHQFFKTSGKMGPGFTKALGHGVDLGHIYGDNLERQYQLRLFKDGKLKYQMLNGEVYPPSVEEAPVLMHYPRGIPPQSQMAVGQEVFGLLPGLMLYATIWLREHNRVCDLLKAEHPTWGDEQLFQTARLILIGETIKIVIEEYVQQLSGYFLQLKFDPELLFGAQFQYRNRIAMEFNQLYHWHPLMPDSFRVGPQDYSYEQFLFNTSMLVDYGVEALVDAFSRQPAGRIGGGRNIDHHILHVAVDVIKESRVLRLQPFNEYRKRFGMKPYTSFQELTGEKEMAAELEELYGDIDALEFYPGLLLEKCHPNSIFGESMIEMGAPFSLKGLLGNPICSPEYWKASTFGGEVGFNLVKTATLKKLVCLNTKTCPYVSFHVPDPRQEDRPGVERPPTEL
Description: Inhibition of Ovis aries (sheep) COX1 using arachidonic acid as substrate using cyclic naphthalene hydrazide by chemiluminescence assay.

pIC50: −log10 of the molar value.

As to `CC(=O)Nc1ccc(-c2nc(-c3ccc(S(C)(=O)=O)cc3)c(-c3ccccc3)[nH]2)cc1`, the negative logarithm of the IC50 (pIC50) is 4.98.
Consider `CS(=O)(=O)c1ccc(-c2nc(-c3ccc(O)cc3)[nH]c2-c2ccccc2)cc1`, for which the pIC50 is 4.95.
Consider `COc1ccc(-c2nc(-c3ccc(S(C)(=O)=O)cc3)c(-c3ccccc3)[nH]2)cc1`, for which the pIC50 was 4.98.
Turning to `CS(=O)(=O)c1ccc(-c2nc(-c3ccc(Cl)cc3)[nH]c2-c2ccccc2)cc1`, the negative logarithm of the IC50 (pIC50) was 4.99.
Under `Cc1ccc(-c2nc(-c3ccc(S(C)(=O)=O)cc3)c(-c3ccccc3)[nH]2)cc1` stands 4.98; under `CS(=O)(=O)c1ccc(-c2nc(-c3ccc(F)cc3)[nH]c2-c2ccccc2)cc1`, 4.95.
As to `CS(=O)(=O)c1ccc(-c2nc(-c3ccccc3)[nH]c2-c2ccccc2)cc1`, the negative logarithm of the IC50 (pIC50) was 5.00.

One may read the pIC50 as −log10 of the IC50, conventionally taken in molar units. Low readings indicate a large IC50, high ones a small IC50.
